Reference: patent US20230218624A1 (Urovant Sciences GmbH, priority 2017, published 2023)
Where “and” joins values, the source holds several entries; their conditions need not be identical. Equal values may be shown once.

Legend:
patients with OAB = test: Phase 2b cardiovascular safety: orthostatic AEs, HR and BP changes; type: in vivo, human
From the text: None led to discontinuation. The overall incidence of orthostatic symptoms was low.
Small differences in the percent of subjects exceeding categorical heart rate and blood pressure thresholds for vibegron were similar to those in the tolterodine arm.

[1] = human, in vivo
QTc interval = test: Thorough QT study, single oral doses
[2] = vibegron 50 mg, 3 consecutive post-baseline visits
[3] = vibegron 100 mg, 3 consecutive post-baseline visits

O=C(Nc1ccc(C[C@@H]2CC[C@H]([C@H](O)c3ccccc3)N2)cc1)[C@@H]1CCc2nccc(=O)n21 [Vibegron, (6S)—N-[4-[[(2S,5R)-5-[(R)-hydroxy(phenyl)methyl]pyrrolidin-2-yl]methyl]phenyl]-4-oxo-7,8-dihydro-6H-pyrrolo[1,2-a]pyrimidine-6-carboxamide]
HR change from baseline ≥15 bpm, subjects (patients with OAB; [2]): (0.7) % | SBP change from baseline ≥5 mm Hg, subjects (patients with OAB; [2]): (16.7) % | SBP change from baseline ≥10 bpm, subjects (patients with OAB; [2]): (9.7) % | SBP change from baseline ≥15 bpm, subjects (patients with OAB; [2]): (2.1) % | DBP change from baseline, mean (week 1) (patients with OAB; vibegron 100 mg): −0.69 mm Hg | DBP change from baseline, mean maximum (week 1 to 8) (patients with OAB; vibegron 100 mg): 4.80 mm Hg | HR change from baseline, mean (week 1) (patients with OAB; vibegron 100 mg): 0.35 bpm | HR change from baseline, mean maximum (week 1 to 8) (patients with OAB; vibegron 100 mg): 6.12 bpm | SBP change from baseline, mean (week 1) (patients with OAB; vibegron 100 mg): −0.77 mm Hg | SBP change from baseline, mean maximum (week 1 to 8) (patients with OAB; vibegron 100 mg): 6.51 mm Hg | subjects with orthostatic related AEs (patients with OAB; vibegron 100 mg group): 1.1% | DBP change from baseline ≥5 mm Hg, subjects (patients with OAB; [3]): (13.1) % | DBP change from baseline ≥10 bpm, subjects (patients with OAB; [3]): (3.4) % | HR change from baseline ≥5 bpm, subjects (patients with OAB; [3]): (11.8) % | HR change from baseline ≥10 bpm, subjects (patients with OAB; [3]): (3.0) % | HR change from baseline ≥15 bpm, subjects (patients with OAB; [3]): (0.4) % | SBP change from baseline ≥5 mm Hg, subjects (patients with OAB; [3]): (11.8) % | SBP change from baseline ≥10 bpm, subjects (patients with OAB; [3]): (4.2) % | SBP change from baseline ≥15 bpm, subjects (patients with OAB; [3]): (1.3) % | dose recovered in feces [1]: approximately 59% | dose recovered in urine [1]: ~20% | AUC, mean ± SD (QTc interval; single dose 200 mg): 2430 ± 974 ng·h/mL | Maximum mean placebo corrected change from baseline RR interval (QTc interval; single dose 200 mg): -84.36 ms | Maximum mean placebo corrected change from baseline diastolic BP (QTc interval; single dose 200 mg): 2.42 mmHg | Maximum mean placebo corrected change from baseline systolic BP (QTc interval; single dose 200 mg): 2.20 mmHg | QTcF LS mean difference from placebo (QTc interval; single dose 200 mg, 0.5 hour): 2.90 ms | QTcF change from baseline, LS mean (QTc interval; single dose 200 mg, 0.5 hour): 1.90 ms | QTcF change from baseline, LS mean (QTc interval; single dose 200 mg, 1 hour): 4.87 ms | QTcF LS mean difference from placebo (QTc interval; single dose 200 mg, 1 hour (maximum)): 4.98 (3.07, 6.88) msec and 4.98 msec | QTcF LS mean difference from placebo (QTc interval; single dose 200 mg, 2 hour): 2.14 ms | QTcF change from baseline, LS mean (QTc interval; single dose 200 mg, 2 hour): 2.06 ms | QTcF LS mean difference from placebo (QTc interval; single dose 200 mg, 3 hour): 0.40 ms | QTcF change from baseline, LS mean (QTc interval; single dose 200 mg, 3 hour): 1.14 ms | QTcF LS mean difference from placebo (QTc interval; single dose 200 mg, 4 hour): -0.83 ms | QTcF change from baseline, LS mean (QTc interval; single dose 200 mg, 4 hour): -0.40 ms | QTcF LS mean difference from placebo (QTc interval; single dose 200 mg, 6 hour): -1.26 ms | QTcF change from baseline, LS mean (QTc interval; single dose 200 mg, 6 hour): -6.89 ms | QTcF LS mean difference from placebo (QTc interval; single dose 200 mg, 8 hour): -1.24 ms | QTcF change from baseline, LS mean (QTc interval; single dose 200 mg, 8 hour): -9.59 ms | QTcF LS mean difference from placebo (QTc interval; single dose 200 mg, 10 hour): -2.67 ms | QTcF change from baseline, LS mean (QTc interval; single dose 200 mg, 10 hour): -8.82 ms | QTcF LS mean difference from placebo (QTc interval; single dose 200 mg, 12 hour): -3.72 ms | QTcF change from baseline, LS mean (QTc interval; single dose 200 mg, 12 hour): -6.82 ms | QTcF LS mean difference from placebo (QTc interval; single dose 200 mg, 23.5 hour): 0.38 ms | QTcF change from baseline, LS mean (QTc interval; single dose 200 mg, 23.5 hour): -2.15 ms | Maximum mean placebo corrected change from baseline RR interval (QTc interval; single dose 400 mg): -162.45 ms | Maximum mean placebo corrected change from baseline diastolic BP (QTc interval; single dose 400 mg): 3.99 mmHg | Maximum mean placebo corrected change from baseline systolic BP (QTc interval; single dose 400 mg): 3.97 mmHg | QTcF LS mean difference from placebo (QTc interval; single dose 400 mg, 0.5 hour): 3.37 ms | QTcF change from baseline, LS mean (QTc interval; single dose 400 mg, 0.5 hour): 2.37 ms | QTcF change from baseline, LS mean (QTc interval; single dose 400 mg, 1 hour): 4.49 ms | QTcF LS mean difference from placebo (QTc interval; single dose 400 mg, 1 hour (maximum)): 4.60 (2.71, 6.48) msec and 4.60 msec | QTcF LS mean difference from placebo (QTc interval; single dose 400 mg, 2 hour): 0.81 ms | QTcF change from baseline, LS mean (QTc interval; single dose 400 mg, 2 hour): 0.73 ms | QTcF LS mean difference from placebo (QTc interval; single dose 400 mg, 3 hour): -1.04 ms | QTcF change from baseline, LS mean (QTc interval; single dose 400 mg, 3 hour): -0.30 ms | QTcF LS mean difference from placebo (QTc interval; single dose 400 mg, 4 hour): -2.96 ms | QTcF change from baseline, LS mean (QTc interval; single dose 400 mg, 4 hour): -2.53 ms | QTcF LS mean difference from placebo (QTc interval; single dose 400 mg, 6 hour): -2.70 ms | QTcF change from baseline, LS mean (QTc interval; single dose 400 mg, 6 hour): -8.33 ms | QTcF LS mean difference from placebo (QTc interval; single dose 400 mg, 8 hour): -3.24 ms | QTcF change from baseline, LS mean (QTc interval; single dose 400 mg, 8 hour): -11.60 ms | QTcF LS mean difference from placebo (QTc interval; single dose 400 mg, 10 hour): -4.14 ms | QTcF change from baseline, LS mean (QTc interval; single dose 400 mg, 10 hour): -10.29 ms | QTcF LS mean difference from placebo (QTc interval; single dose 400 mg, 12 hour): -4.00 ms | QTcF change from baseline, LS mean (QTc interval; single dose 400 mg, 12 hour): -7.10 ms | QTcF LS mean difference from placebo (QTc interval; single dose 400 mg, 23.5 hour): -0.34 ms | QTcF change from baseline, LS mean (QTc interval; single dose 400 mg, 23.5 hour): -2.87 ms | effect on QTc or blood pressure (QTc interval; thorough QT study): no clinically meaningful effect on QTc or blood pressure
